Data from patent US10383943B2, “Compositions and related methods for the treatment of cancer” (South Dakota Board of Regents, priority 2016, dated 2019).

Assays:
[1] = tested on: White blood cell (WBC) counts; test: White blood cell (WBC) toxicity in mice; format: in vivo; conditions: FIG. 10
Excerpt: White blood cell (WBC) counts are important for immune mediated tumor clearance. In order to assess the level of WBC toxicity of induced by A-Platin relative the WBC lose was quantified in mice following treatment with drug along and drug administered in conjunction with radiation.

[2] = tested on: SCC1 cells (HPV-human HNSCC); test: Colony forming assay (crystal violet, A540) in SCC1 cells; format: cell-based; conditions: 10-500 μM, p<0.03 compared to control, FIG. 7
Protocol: (§1) In order to further assess the effect of A-platin on cancer cell growth, colony forming assays using Head and Neck Squamous Cell Carcinoma (HNSCC) were preformed. Briefly, 10,000 cells were plated in triplicate in 6-well plates per treatment condition. The next day cells were treated with the cisplatin, A-platin, or G-platin at the variable doses. On day 6 from plating, cells were fixed in 70% ethanol and stained with 0.5% crystal violet in 10% ethanol. After sufficient washing and drying, cells were destained in 25% glacial acetic acid, and absorbance of 100 uL of each destain solution was read on a SpectraMax plate reader at 540 nm (A540). A540 is an indirect measure of the amount of crystal violet per well, and thus the number of cells per well.

[3] = tested on: SCC47 cells (HPV+ human HNSCC); test: Colony forming assay (crystal violet, A540) in SCC47 cells; format: cell-based; conditions: FIG. 7
Protocol: as §1

[4] = tested on: Primary human tonsil epithelial cells (HTE); test: Colony forming assay (crystal violet, A540) in primary HTE cells; format: cell-based; conditions: FIG. 7

| SMILES | white blood cell loss ([1]; drug treatment alone groups) | white blood cell loss ([1]; drug+radiation groups) | cell number relative to control (A540) [2] | cell number relative to control (A540) ([3]; 50-500 μM, p<0.0007 compared to control) | cell number (A540) ([4]; 10-500 μM, p<0.04 compared to control) | cell number relative to control (A540) ([3]; 10-500 μM, p<0.008 compared to control) | cell number (A540) ([4]; 1-500 μM, p<0.007 compared to control) |
| --- | --- | --- | --- | --- | --- | --- | --- |
| N[C@@H](Cc1ccc(N=C(O)CCC(=O)[O][Pt]([NH2])([NH2])([OH])([Cl])[Cl])cc1)C(=O)O [AT-Platin] | less white blood cell loss | less white blood cell loss | – | – | – | – | – |
| N.N.[Cl][Pt][Cl] [Cisplatin, cis-diamminedichloroplatinum(II), reference compound] | – | – | reduced cell number relative to control | reduced cell number relative to control | reduced cell number | – | – |
| [NH2][Pt]([NH2])([OH])([Cl])([Cl])[O]C(=O)CCC(O)=N[C@@H]1C(O)[C@H](O)C(CO)O[C@@H]1O (some centres unmarked) [G-platin] | – | – | reduced cell number relative to control | – | – | reduced cell number relative to control | reduced cell number |
